Test results as given in ChEMBL document CHEMBL1201862, “PubChem BioAssay data set” (2004).
Activity calls are given as the source filed them. For most assays here, no stated cut-off is given here; in the data, actives have a measured EC50 and inactives only a lower limit.

What was measured:
[1] = NIH3T3 cell viability loss – ATP luminescence, mouse fibroblasts, counter-screen, dose response (AID 2010); assay type: functional, cell-based;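 further: cells exposed to compound for about 90 hours before reading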
[2] = Luminescence Cell-Based Dose Retest to Confirm Inhibitors of Cancer Stem Cells. [Related pubchem assays (depositor defined):AID2717, AID2721]; assay type: functional; conditions: Homo sapiens
[3] = molecular target: Paired box protein Pax-8 (Homo sapiens, UniProt Q06710); assay: PAX8 transcriptional activity inhibition in RMG-I – RMG-I cells, luciferase, cherry-pick, dose response (AID 687027); assay type: functional, cell-based;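 further: luciferase reporter driven by Pax8 target thyroperoxidase promoter measured by SteadyGlo luminescence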
[4] = Trypanosoma cruzi growth suppression in host cells – NIH3T3 host cells, beta-gal luminescence, confirmation (AID 2044); assay type: functional, cell-based;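 further: intracellular parasites grown in NIH/3T3 mouse fibroblasts as host cells; luminescent beta-galactosidase reporter signal from transgenic T. cruzi replicating inside host cells; inhibitors lower the luminescence signal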
[5] = Luminescence Cell-Based Dose Confirmation HTS to Identify Activators of 5'UTR Stem-Loop Driven Alpha-Synuclein mRNA Translation in H4 Neuroglioblastoma Cells. [Related pubchem assays: 1829 (Project Summary), 1814 (Primary HTS)]; assay type: functional
[6] = Luminescence Cell-Based Dose Response HTS to Identify Activators of Luciferase Translation or Activity in H4 […] Cells. [Related pubchem assays: 1829 (Project Summary), 1814 (Primary HTS)]; assay type: functional
[7] = tested on: H4; assay: Luminescence Cell-Based Dose Response HTS to Identify Activators of 5'UTR Stem-Loop Driven Prion Protein mRNA Translation in H4 Neuroglioblastoma Cells. [Related pubchem assays: 1829 (Project Summary), 1814 (Primary HTS)]; assay type: functional; conditions: Homo sapiens
[8] = cells; assay type: functional, cell-based
[9] = cells; assay type: functional, cell-based; remark: listed apart in the source
[10] = viability of uninfected HEp-2 cells – cell-based, HTS, cytotoxicity control for RSV inhibitor project, dose response (AID 2410); assay type: functional; conditions: human respiratory syncytial virus
[11] = Luminescence Cell-Based Dose Response HTS to Identify Inhibitors of 5'UTR Stem-Loop Driven Prion Protein mRNA Translation in H4 Neuroglioblastoma Cells. [Related pubchem assays: 1827 (Project Summary), 1813 (Primary HTS)]; assay type: functional
[12] = luciferase reporter signal suppression in cells – H4 neuroglioma cells, luminescence, dose response (AID 1990); assay type: functional, cell-based
[13] = alpha-synuclein stem-loop luciferase translation blockers – H4 neuroglioma cells, luminescence, confirmation (AID 1988); assay type: functional, cell-based
[14] = tested on: INS1; assay: INS-1E survival protection against cytokine death – cell-based, luminescence, retest, dose response (AID 449756); assay type: functional; conditions: Rattus norvegicus;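 further: cell death triggered by IL-1 beta plus TNF-alpha plus IFN-gamma mixture; protective hits raise ATP signal compared with cytokine alone wells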
[15] = loss of viability in HepG2 cells – cell-based, CellTiter-Glo, cherry-picked, cytotoxicity control for Shn3 inhibitor project, dose response (AID 624134); assay type: functional
[16] = reduction of Shn3 3'UTR-driven luciferase in osteoblasts – cell-based, Clone20 osteoblasts, firefly luciferase, cherry-picked, dose response (AID 624132); assay type: functional;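 further: firefly luciferase luminescence from reporter carrying the Shn3 3'UTR in osteoblasts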
[17] = non-specific 3'UTR reporter inhibition in Clone20-Shn3RL – cell-based, Renilla luciferase, cherry-picked, counter-screen for Shn3 inhibitor project, dose response (AID 624133); assay type: functional
[18] = molecular target: T1, Cytochrome P450 1A2 (Homo sapiens, UniProt P05177);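 further: PubChem cytochrome P450 panel assay, CYP1A2 panel member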
T1 sequence (P05177 whole entry): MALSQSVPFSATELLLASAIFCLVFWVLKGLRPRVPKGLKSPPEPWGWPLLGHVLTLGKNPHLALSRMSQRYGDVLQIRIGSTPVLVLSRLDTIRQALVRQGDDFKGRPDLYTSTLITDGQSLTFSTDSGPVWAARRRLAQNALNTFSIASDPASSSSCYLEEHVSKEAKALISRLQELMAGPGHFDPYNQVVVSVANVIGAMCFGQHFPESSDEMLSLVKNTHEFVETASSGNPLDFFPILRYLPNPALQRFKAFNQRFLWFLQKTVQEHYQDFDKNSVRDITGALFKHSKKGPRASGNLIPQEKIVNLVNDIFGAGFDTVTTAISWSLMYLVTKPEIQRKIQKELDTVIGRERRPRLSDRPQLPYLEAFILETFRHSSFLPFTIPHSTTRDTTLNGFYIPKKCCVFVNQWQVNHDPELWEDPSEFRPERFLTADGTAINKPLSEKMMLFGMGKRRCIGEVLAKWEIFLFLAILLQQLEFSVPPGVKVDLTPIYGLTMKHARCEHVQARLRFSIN

Sequence of Paired box protein Pax-8 (Q06710 whole entry): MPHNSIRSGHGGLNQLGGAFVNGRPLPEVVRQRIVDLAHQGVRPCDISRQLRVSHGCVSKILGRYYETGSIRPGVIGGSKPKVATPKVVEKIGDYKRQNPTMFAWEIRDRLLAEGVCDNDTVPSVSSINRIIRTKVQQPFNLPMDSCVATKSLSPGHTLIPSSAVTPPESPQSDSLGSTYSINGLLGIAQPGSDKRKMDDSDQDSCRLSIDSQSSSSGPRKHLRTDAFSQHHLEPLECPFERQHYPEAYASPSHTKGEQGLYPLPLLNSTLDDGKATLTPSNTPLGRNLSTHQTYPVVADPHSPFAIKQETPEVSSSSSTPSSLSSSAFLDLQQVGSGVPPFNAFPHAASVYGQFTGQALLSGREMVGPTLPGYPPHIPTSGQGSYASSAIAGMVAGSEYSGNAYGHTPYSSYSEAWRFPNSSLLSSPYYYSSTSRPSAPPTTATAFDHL

Cc1c(C(=O)c2cccc3ccccc23)c2cccc3c2n1[C@H](CN1CCOCC1)CO3
EC50 [1]: 55.9 µM (active) | AC50 [2]: 3.47 µM (active) | AC50 [3]: 8.77 µM (active) | EC50 [4]: 0.887 µM (active)

O=C(COC(=O)/C(=C/c1cccs1)c1cccs1)NC(c1ccccc1)c1ccccc1
AC50 [3]: 8.36 µM (active)

CC(=O)C(Sc1nn(C)c(=S)s1)C(=O)Nc1ccccc1 (stereo unspecified)
EC50 [5]: 23.9 µM (active) | EC50 [6]: 12.4 µM (active) | EC50 [7]: 14.3 µM (active)

CC(=O)Nc1c([N+](=O)[O-])cc(C)c(Cl)c1[N+](=O)[O-]
EC50 [8]: > 350 µM (not active) | EC50 [9]: > 350 µM (not active)

O=C(NS(=O)(=O)c1ccc2c(c1)OCCO2)c1ccccc1
EC50 [8]: > 350 µM (not active) | EC50 [9]: > 350 µM (not active)

Cc1nn(Cc2ccccc2Cl)c2sc(C(=O)NC(C)(C)C)cc12
CC50 [10]: > 50 µM (active)

c1ccc(-c2ccc(-c3csnn3)cc2)cc1
EC50 [5]: 0.186 µM (active) | EC50 [6]: 0.326 µM (active) | EC50 [7]: 27.5 µM (active)

COc1ccc(-c2csc(NC(=S)NC(=O)/C=C/c3ccco3)n2)cc1Br
EC50 [11]: > 120 µM (not active) | AC50 [2]: 0.47 µM (active) | EC50 [12]: > 120 µM (not active) | EC50 [13]: 9.94 µM (inconclusive)

O=C(CN1CCCC1)Nc1nc(-c2ccc3c(c2)CCN3C(=O)c2ccccc2F)cs1
EC50 [5]: 12.9 µM (active) | EC50 [6]: 24.4 µM (active) | EC50 [7]: 16.7 µM (inconclusive)

O=C(c1ccc(-c2ccc(Cl)cc2)o1)N1CCN(c2ccc([N+](=O)[O-])cc2Cl)CC1
AC50 [14]: 3.58 µM (active) | CC50 [10]: 9.46 µM (active)

Cc1nn(C)c(Cl)c1CN1CCCC(CO)(Cc2ccccc2)C1 (stereo unspecified)
CC50 [10]: > 50 µM (active)

CCCCNc1nc2c(c(=O)n(C)c(=O)n2C)n1Cc1cccc(OC)c1
AC50 [15]: 3.87 µM (active) | AC50 [16]: 0.284 µM (active) | AC50 [17]: 1.13 µM (active)

Cc1oc(=O)c(NC(=O)c2ccc(Cl)cc2)cc1C(=O)c1ccccc1
AC50 [15]: > 70 µM (inactive) | AC50 [16]: 32.1 µM (active)

Cc1cccc2sc(N3CCN(C(=O)C4COc5ccccc5O4)CC3)nc12 (stereo unspecified)
CC50 [10]: 25.8 µM (active)

CC(C)(C)c1ccc(OC(=O)N2CCOCC2)cc1
EC50 [5]: 23.7 µM (active) | EC50 [6]: > 120 µM (not active) | EC50 [7]: 1.3 µM (active)

O=C(NCCc1ccccc1)C1CCN(S(=O)(=O)c2ccc(-n3cnnn3)cc2)CC1
EC50 [8]: > 350 µM (not active) | EC50 [9]: > 350 µM (not active)

COc1cccc(Cn2nnc3c(O)nc(C4CCCN(C(=O)c5ccccc5Cl)C4)nc32)c1 (stereo unspecified)
AC50 [18]: 25.1 µM (inconclusive) | EC50 [11]: > 120 µM (not active) | EC50 [12]: > 120 µM (not active) | EC50 [13]: > 120 µM (not active)

COC(=O)[C@@]12CCCCN1[C@H](c1ccc(-c3ccc(OC)cc3)cc1)[C@@H]1C(=O)N(C)C(=O)[C@@H]12
CC50 [10]: 17.7 µM (active)

Cn1c(SCc2ccc(F)cc2Cl)nc2ccccc2c1=O
AC50 [15]: 8.38 µM (active) | AC50 [16]: 8.65 µM (active) | AC50 [17]: 3.09 µM (active)

Cc1ccc(OCc2nnc(SCC(=O)Nc3cccc4ccccc34)n2-c2ccccc2)cc1
EC50 [11]: > 120 µM (not active) | EC50 [12]: > 120 µM (not active) | EC50 [13]: > 120 µM (not active)

COc1ccc(-c2nc(-c3ccc(NC(=O)c4ccncc4)cc3)no2)cc1OC
AC50 [15]: 4.96 µM (active) | AC50 [16]: 2.36 µM (active) | AC50 [17]: 3.85 µM (active)

Cc1noc(C)c1COC(=O)c1ccc(-c2nc3ccccc3s2)s1
EC50 [5]: 0.414 µM (active) | EC50 [6]: 0.245 µM (active) | EC50 [7]: 13 µM (active)

CCN(CC)c1ccc(NC(=O)CSc2nc(O)c3c(C)cc(C)nc3n2)cc1
EC50 [8]: > 350 µM (not active) | EC50 [9]: > 350 µM (not active)
